Results as given in patent EP4644389A1, “PRMT5-MTA INHIBITOR” (Suzhou Puhe Biopharma Co., Ltd., priority 2022, dated 2024).
Read-outs that look alike come from different tables or passages of the source.

How the values were obtained:
HCT116-MTAPwt = assay: 2D anti-proliferation assay (CTG luminescence), wild-type HCT116 cells; format: cell-based; details: Homo sapiens, HCT-116, 7-10 days incubation
Experimental: By testing the activity of both of them, the inhibitory effect and selectivity of the molecules of the present invention for PRMT5 at the cellular level were shown.
(§1) HCT116 wild-type and MTAP-deficient cells were cultured in MCCOYS 5A medium containing 10% FBS and 1% penicillin-streptomycin and incubated in a 37°C, 5% CO2 incubator. A 40 µL cell suspension was added to each well of a 384-well microplate. Using Echo, 40 nL of the compound at different concentrations were added to each well, followed by incubation in a 37°C, 5% CO2 incubator for 7-10 days. 40 µL of CTG solution (Promega, Cat No. G7573) was added to each well and incubated away from light in a 37°C, 5% CO2 incubator for 30 minutes. Luminescence was measured using an Envision multimode plate reader (Perkin Elmer, Catalog No. Envision 2104). The luminescence signal was proportional to the ATP content in the system, and the ATP content directly reflected the number of viable cells in the system.
ICso value calculation: [formula] • X: Log value of compound concentration • Y: Inhibition rate (%) Table 1: 2D Anti-proliferation Effects of Compounds on HTC116-MTAP del and Wild-type Colorectal Cancer HCT-116 Cell Lines.

HCT116-MTAPdel = assay: 2D anti-proliferation assay (CTG luminescence), MTAP-deficient HCT116 cells; format: cell-based; details: for IC50: Homo sapiens; for HCT116 WT/MTAPdel Selectivity: ratio of IC50 HCT116 WT / MTAPdel
Experimental: as §1

[1] = Caco-2 membrane permeability assay; format: in vitro ADME; details: human
Experimental: Evaluation of membrane permeability of the molecules of the present invention. Samples will be analyzed using LC-MS to estimate the apparent permeability coefficient (Papp) of the compound in Caco-2 monolayer cells, wherein the pH of the apical chamber is 6.5, and the pH of the basolateral chamber is 7.4. The P-gp efflux transporter, BCRP, and MRP2 inhibitors (50 µM quinidine, 30 µM benzbromarone, and 20 µM sulfasalazine) can block the active efflux transport of the compound. The data will be used for calculating apparent permeability (Papp). Papp = (VA×⌊drug⌋acceptor)/(Area×Time×⌊drug⌋initial,donor) [formula] wherein, VA is the volume of the receptor well (unit: mL), area is the membrane surface area (for Transwell-96 well permeable support, it is 0.143 cm^2), and time is the total transport time (unit: seconds). Efflux Ratio = Papp (B−A)/Papp (A−B) [formula]

[2] = Liver microsomal stability, human; format: in vitro ADME; details: human liver microsomes 0.5 mg/mL, compound 1 µM, NADPH 1 mM, 60 minutes
Experimental: Microsomal stability experiment of the compound. The details are as follows: A microsomal stability test was conducted on the compounds of the present invention. The test compounds were co-incubated with liver microsomes from different species, with or without the addition of NADPH. In the test system, the final concentration of the test compound was 1 µM, the final concentration of NADPH was 1 mM, and the final concentration of liver microsomes was 0.5 mg/mL.

[3] = HCT-116, HCT116 MTAP-deficient cells, 7-10 days incubation, CTG, read-out: HCT116-MTAPdel/IC50/nM
[4] = Caco-2, apical pH 6.5, basolateral pH 7.4
[5] = HCT-116, read-out: HCT116-MTAPdel/IC50/nM

## CC(=O)N1CCC(Nc2cc(C(=O)NC[C@H](O)CN3CCc4ccccc4C3)ncn2)CC1 [GSK3326595, reference compound]
HCT116-MTAPwt
  IC50: 72 nM
HCT116-MTAPdel; [3]
  IC50: 17 nM
HCT116-MTAPdel
  HCT116 WT/MTAPdel Selectivity: 4

## Cc1c(CO)c(N)nc2cc(F)c(C(=O)N(C)C3COCc4nc(C(F)(F)F)ccc43)cc12 (racemic) [Compound A10]
HCT116-MTAPwt
  IC50: > 10000 nM
[1]; Caco-2, Efflux Ratio = Papp (B-A)/Papp (A-B)
  efflux ratio: 3.8
[1]; [4]
  Papp A→B: 8.1 ×10⁻⁶ cm/s
  Papp B→A: 31 ×10⁻⁶ cm/s
HCT116-MTAPdel; [3]
  IC50: 18 nM
HCT116-MTAPdel
  HCT116 WT/MTAPdel Selectivity: >556
[2]
  CLint scaled at 1 µM: 11.1 mL/min/kg

## C[C@H]1COC[C@@H](c2ccc(OC(F)(F)F)cc2)N1C(=O)c1cc2cc(C3CC3)c(N)nc2cc1Cl [Compound P6]
HCT116-MTAPdel; [3]
  IC50: 156 nM

## Cc1c(CO)c(N)nc2cc(F)c(C(=O)N3C(C)COCC3c3ccc(-c4cncc(Cl)c4)cn3)cc12 (racemic) [Compound A4]
HCT116-MTAPwt
  IC50: 1140 nM
HCT116-MTAPdel; [3]
  IC50: 7 nM
HCT116-MTAPdel
  HCT116 WT/MTAPdel Selectivity: 164

## Nc1nc2cc(F)c(C(=O)N3CCOCC3c3ccc(C(F)(F)F)cn3)cc2cc1C1CC1 (centres unmarked) [Compound P3]
HCT116-MTAPwt
  IC50: > 10000 nM
HCT116-MTAPdel; [3]
  IC50: 2870 nM
HCT116-MTAPdel
  HCT116 WT/MTAPdel Selectivity: >4

## Cc1c(CO)c(N)nc2cc(F)c(C(=O)N(C)[C@H]3COCc4nc(-c5cncc(Cl)c5)ccc43)cc12 (racemic) [Compound A11]
HCT116-MTAPwt
  IC50: 4380 nM
HCT116-MTAPdel; [3]
  IC50: 26 nM
HCT116-MTAPdel
  HCT116 WT/MTAPdel Selectivity: 168

## Cc1c(C2CC2)c(N)nc2cc(F)c(C(=O)N3[C@@H](C)COC[C@H]3c3ccc(-c4cncc(C(F)(F)F)c4)cn3)cc12 [Compound P10]
HCT116-MTAPwt
  IC50: 1860 nM
HCT116-MTAPdel; [3]
  IC50: 34 nM
HCT116-MTAPdel
  HCT116 WT/MTAPdel Selectivity: 55

## Cc1c(CO)c(N)nc2cc(F)c(C(=O)N3CC(C)CCC3c3ccc4scnc4c3)cc12 (racemic) [Compound A7]
HCT116-MTAPwt
  IC50: 3880 nM
HCT116-MTAPdel; [3]
  IC50: 88 nM
HCT116-MTAPdel
  HCT116 WT/MTAPdel Selectivity: 44

## Cc1c(C2CC2)c(N)nc2cc(F)c(C(=O)N3[C@@H](C)COC[C@H]3c3ccc(-c4cncc(Cl)c4)cn3)cc12 [Compound P9]
HCT116-MTAPwt
  IC50: 936 nM
HCT116-MTAPdel; [3]
  IC50: 16 nM
HCT116-MTAPdel
  HCT116 WT/MTAPdel Selectivity: 59

## CC(C)N1CCN(c2ccc([C@@H]3COC[C@H](C)N3C(=O)c3cc4cc(C5CC5)c(N)nc4cc3F)cc2)CC1 [Compound P5]
HCT116-MTAPwt
  IC50: > 10000 nM
HCT116-MTAPdel; [3]
  IC50: 612 nM
HCT116-MTAPdel
  HCT116 WT/MTAPdel Selectivity: >16

## Cc1c(CO)c(N)nc2cc(Cl)c(C(=O)N3[C@@H](C)COC[C@H]3c3ccc(C(F)(F)F)cn3)cc12 [Compound A2a]
HCT116-MTAPwt
  IC50: > 10000 nM
HCT116-MTAPdel; [3]
  IC50: 3030 nM
HCT116-MTAPdel
  HCT116 WT/MTAPdel Selectivity: >3

## Cc1c(C2CC2)c(N)nc2cc(F)c(C(=O)N(C)C3COCc4nc(C(F)(F)F)ccc43)cc12 (centres unmarked) [Compound H6]
HCT116-MTAPwt
  IC50: 532 nM
HCT116-MTAPdel; [3]
  IC50: 33 nM
HCT116-MTAPdel
  HCT116 WT/MTAPdel Selectivity: 16

## Cc1c(C2CC2)c(N)nc2cc(Cl)c(C(=O)N(C)C3COCc4nc(C(F)(F)F)ccc43)cc12 (centres unmarked) [Compound H7]
HCT116-MTAPwt
  IC50: 1110 nM
HCT116-MTAPdel; [3]
  IC50: 29 nM
HCT116-MTAPdel
  HCT116 WT/MTAPdel Selectivity: 38

## Cc1c(C2CC2)c(N)nc2cc(Cl)c(C(=O)N3[C@@H](C)COC[C@H]3c3ccc(C(F)(F)F)cn3)cc12 [Compound P7b]
HCT116-MTAPwt
  IC50: 3800 nM
HCT116-MTAPdel; [3]
  IC50: 2540 nM
HCT116-MTAPdel
  HCT116 WT/MTAPdel Selectivity: 2

## CN(C(=O)c1ccc2nc(N)c(C3CC3)cc2c1)C1COc2cc(-c3cnn(C)c3)ccc21 (racemic) [Compound H4]
HCT116-MTAPwt
  IC50: > 10000 nM
HCT116-MTAPdel; [3]
  IC50: 4350 nM
HCT116-MTAPdel
  HCT116 WT/MTAPdel Selectivity: >3

## Cc1c(C2CC2)c(N)nc2cc(Cl)c(C(=O)N3[C@H](C)COC[C@@H]3c3ccc(C(F)(F)F)cn3)cc12 [Compound P7a]
HCT116-MTAPwt
  IC50: 1640 nM
HCT116-MTAPdel; [3]
  IC50: 230 nM
HCT116-MTAPdel
  HCT116 WT/MTAPdel Selectivity: 7

## C[C@H]1COC[C@@H](c2ccc(C(F)(F)F)cn2)N1C(=O)c1ccc2nc(N)c(C3CC3)cc2c1 [Compound P4]
HCT116-MTAPwt
  IC50: > 10000 nM
HCT116-MTAPdel; [3]
  IC50: 790 nM
HCT116-MTAPdel
  HCT116 WT/MTAPdel Selectivity: >13

## C[C@H]1COC[C@@H](c2ccc(C(F)(F)F)cn2)N1C(=O)c1cc2cc(C3CC3)c(N)nc2cc1F [Compound P2]
HCT116-MTAPwt
  IC50: > 10000 nM
HCT116-MTAPdel; [3]
  IC50: 93 nM
HCT116-MTAPdel
  HCT116 WT/MTAPdel Selectivity: >108

## Cc1c(CO)c(N)nc2cc(F)c(C(=O)N(C)[C@H]3COCc4nc(-c5cncc(F)c5)ccc43)cc12 (racemic) [Compound A12]
HCT116-MTAPwt
  IC50: 3250 nM
HCT116-MTAPdel; [3]
  IC50: 36 nM
HCT116-MTAPdel
  HCT116 WT/MTAPdel Selectivity: 90

## Cc1c(CO)c(N)nc2cc(F)c(C(=O)N3C(C)COCC3c3ccc(OC(F)(F)F)cc3)cc12 (racemic) [Compound A5]
HCT116-MTAPwt
  IC50: 1360 nM
HCT116-MTAPdel; [3]
  IC50: 18 nM
HCT116-MTAPdel
  HCT116 WT/MTAPdel Selectivity: 75

## Cc1c(CO)c(N)nc2cc(Cl)c(C(=O)N3[C@H](C)COC[C@@H]3c3ccc(C(F)(F)F)cn3)cc12 [Compound A2b]
HCT116-MTAPwt
  IC50: 398 nM
HCT116-MTAPdel; [3]
  IC50: 4 nM
HCT116-MTAPdel
  HCT116 WT/MTAPdel Selectivity: 100

## Cc1c(CO)c(N)nc2cc(F)c(C(=O)N3CC(C)CCC3c3ccc4ncsc4c3)cc12 (racemic) [Compound A8]
HCT116-MTAPwt
  IC50: 2000 nM
HCT116-MTAPdel; [3]
  IC50: 150 nM
HCT116-MTAPdel
  HCT116 WT/MTAPdel Selectivity: 13

## Cc1c(CO)c(N)nc2cc(F)c(C(=O)N3C(C)COCC3c3ccc(C(F)(F)F)cc3)cc12 (racemic) [Compound A6]
HCT116-MTAPwt
  IC50: 1020 nM
HCT116-MTAPdel; [3]
  IC50: 7 nM
HCT116-MTAPdel
  HCT116 WT/MTAPdel Selectivity: 145

## C[C@H]1COC[C@@H](c2ccc(OC(F)F)nn2)N1C(=O)c1cc2cc(C3CC3)c(N)nc2cc1F [Compound P8]
HCT116-MTAPwt
  IC50: > 10000 nM
HCT116-MTAPdel; [3]
  IC50: 96 nM
HCT116-MTAPdel
  HCT116 WT/MTAPdel Selectivity: >104

## CN(C(=O)c1ccc2nc(N)c(C3CC3)cc2c1)C1COc2cc(OC(F)(F)F)ccc21 (centres unmarked) [Compound H2]
HCT116-MTAPwt
  IC50: > 10000 nM
HCT116-MTAPdel; [3]
  IC50: 6290 nM
HCT116-MTAPdel
  HCT116 WT/MTAPdel Selectivity: >1

## CN(C(=O)c1ccc2nc(N)c(C3CC3)cc2c1)C1COc2cc(C(F)(F)F)ccc21 (racemic) [Compound H1]
HCT116-MTAPwt
  IC50: > 10000 nM
HCT116-MTAPdel; [3]
  IC50: 4250 nM
HCT116-MTAPdel
  HCT116 WT/MTAPdel Selectivity: >2

## Cc1c(CO)c(N)nc2cc(F)c(C(=O)N(C)[C@H]3COCc4nc(-c5cncc(C(F)(F)F)c5)ccc43)cc12 (racemic) [Compound A13]
HCT116-MTAPwt
  IC50: 3750 nM
HCT116-MTAPdel; [3]
  IC50: 32 nM
HCT116-MTAPdel
  HCT116 WT/MTAPdel Selectivity: 117

## Cc1cc(NC(=O)C(=O)N2C[C@@H](C)CC[C@@H]2c2ccc3scnc3c2)cnc1N [TNG908, reference compound]
HCT116-MTAPwt
  IC50: 1230 nM
HCT116-MTAPdel; HCT116 WT vs MTAP-deleted
  selectivity: 23 fold
HCT116-MTAPdel; [5]
  IC50: 54 nM
HCT116-MTAPdel
  HCT116 WT/MTAPdel Selectivity: 23

## Cc1cc2cc(C(=O)N(Cc3ccc(C(F)(F)F)cn3)[C@H](C)c3ncccn3)ccc2nc1N [AM9747, reference compound]
HCT116-MTAPwt
  IC50: 237 nM
HCT116-MTAPdel; [5]
  IC50: 7 nM

## CN(C(=O)c1ccc2nc(N)c(C3CC3)cc2c1)C1COCc2nc(C(F)(F)F)ccc21 (centres unmarked) [Compound H3]
HCT116-MTAPwt
  IC50: > 10000 nM
HCT116-MTAPdel; [3]
  IC50: 926 nM
HCT116-MTAPdel
  HCT116 WT/MTAPdel Selectivity: >11

## Cc1c(CO)c(N)nc2cc(F)c(C(=O)N3C(C)COCC3c3ccc(-c4cncc(F)c4)cn3)cc12 (racemic) [Compound A3]
HCT116-MTAPwt
  IC50: 1450 nM
HCT116-MTAPdel; [3]
  IC50: 5 nM
HCT116-MTAPdel
  HCT116 WT/MTAPdel Selectivity: 291

## CN(C(=O)c1ccc2nc(N)c(C3CC3)cc2c1)C1COc2cc(-c3cnn(C(F)(F)F)c3)ccc21 (centres unmarked) [Compound H5]
HCT116-MTAPwt
  IC50: 8020 nM
HCT116-MTAPdel; [3]
  IC50: 2960 nM
HCT116-MTAPdel
  HCT116 WT/MTAPdel Selectivity: 3
